From PMC9030254, “Target Hopping from Protein Kinases to PXR: Identification of Small-Molecule Protein Kinase Inhibitors as Selective Modulators of Pregnane X Receptor from TüKIC Library” (Cells, 2022)

What was measured:
Experiment in all cases: Kinase profiling
Type in all cases: biochemical
[1] = target: T1, MASTL (Homo sapiens, UniProt Q96GX5)
T1 construct: purchased ProQinase (Freiburg, Germany)
T1 sequence (Q96GX5 1-879): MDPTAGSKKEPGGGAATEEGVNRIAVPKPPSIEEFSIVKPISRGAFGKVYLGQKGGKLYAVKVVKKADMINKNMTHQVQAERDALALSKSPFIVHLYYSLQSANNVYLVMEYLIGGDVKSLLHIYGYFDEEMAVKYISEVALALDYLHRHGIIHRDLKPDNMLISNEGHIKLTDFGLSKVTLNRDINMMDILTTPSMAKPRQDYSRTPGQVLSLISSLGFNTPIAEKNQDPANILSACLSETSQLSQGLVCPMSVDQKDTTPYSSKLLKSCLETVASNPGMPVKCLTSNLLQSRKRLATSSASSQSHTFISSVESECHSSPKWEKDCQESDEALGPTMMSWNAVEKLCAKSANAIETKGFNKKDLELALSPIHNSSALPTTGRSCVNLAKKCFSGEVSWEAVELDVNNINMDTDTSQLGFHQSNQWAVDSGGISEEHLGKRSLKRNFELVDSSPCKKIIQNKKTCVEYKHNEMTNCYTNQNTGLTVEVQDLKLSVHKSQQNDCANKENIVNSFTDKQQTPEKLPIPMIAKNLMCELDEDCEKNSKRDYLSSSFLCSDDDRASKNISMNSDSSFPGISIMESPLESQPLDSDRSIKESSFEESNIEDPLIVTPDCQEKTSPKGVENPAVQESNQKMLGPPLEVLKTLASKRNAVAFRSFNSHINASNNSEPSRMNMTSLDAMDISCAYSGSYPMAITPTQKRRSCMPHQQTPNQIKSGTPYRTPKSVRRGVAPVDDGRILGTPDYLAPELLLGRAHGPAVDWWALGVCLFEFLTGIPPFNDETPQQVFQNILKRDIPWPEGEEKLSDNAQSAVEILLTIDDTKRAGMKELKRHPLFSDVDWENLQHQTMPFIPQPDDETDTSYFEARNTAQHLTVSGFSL
Experimental: (§1) The analysis was performed by ProQinase (Freiburg, Germany).

[2] = target: T2, CDK2/CycD1 (Homo sapiens, UniProt P24941)
T2 construct: purchased ProQinase (Freiburg, Germany)
Experimental: as §1

[3] = target: T3, EPHA4 (Homo sapiens, UniProt P54764)
T3 construct: purchased ProQinase (Freiburg, Germany)
Experimental: as §1

[4] = target: T4, CDK2/CycA2 (Homo sapiens, UniProt P24941)
T4 construct: purchased ProQinase (Freiburg, Germany)
Experimental: as §1

[5] = target: T5, p38alpha (Homo sapiens, UniProt Q16539)
T5 construct: purchased ProQinase (Freiburg, Germany)
Experimental: as §1

[6] = target: T6, EPHB3 (Homo sapiens, UniProt P54753)
T6 construct: purchased ProQinase (Freiburg, Germany)
T6 sequence (P54753 34-998): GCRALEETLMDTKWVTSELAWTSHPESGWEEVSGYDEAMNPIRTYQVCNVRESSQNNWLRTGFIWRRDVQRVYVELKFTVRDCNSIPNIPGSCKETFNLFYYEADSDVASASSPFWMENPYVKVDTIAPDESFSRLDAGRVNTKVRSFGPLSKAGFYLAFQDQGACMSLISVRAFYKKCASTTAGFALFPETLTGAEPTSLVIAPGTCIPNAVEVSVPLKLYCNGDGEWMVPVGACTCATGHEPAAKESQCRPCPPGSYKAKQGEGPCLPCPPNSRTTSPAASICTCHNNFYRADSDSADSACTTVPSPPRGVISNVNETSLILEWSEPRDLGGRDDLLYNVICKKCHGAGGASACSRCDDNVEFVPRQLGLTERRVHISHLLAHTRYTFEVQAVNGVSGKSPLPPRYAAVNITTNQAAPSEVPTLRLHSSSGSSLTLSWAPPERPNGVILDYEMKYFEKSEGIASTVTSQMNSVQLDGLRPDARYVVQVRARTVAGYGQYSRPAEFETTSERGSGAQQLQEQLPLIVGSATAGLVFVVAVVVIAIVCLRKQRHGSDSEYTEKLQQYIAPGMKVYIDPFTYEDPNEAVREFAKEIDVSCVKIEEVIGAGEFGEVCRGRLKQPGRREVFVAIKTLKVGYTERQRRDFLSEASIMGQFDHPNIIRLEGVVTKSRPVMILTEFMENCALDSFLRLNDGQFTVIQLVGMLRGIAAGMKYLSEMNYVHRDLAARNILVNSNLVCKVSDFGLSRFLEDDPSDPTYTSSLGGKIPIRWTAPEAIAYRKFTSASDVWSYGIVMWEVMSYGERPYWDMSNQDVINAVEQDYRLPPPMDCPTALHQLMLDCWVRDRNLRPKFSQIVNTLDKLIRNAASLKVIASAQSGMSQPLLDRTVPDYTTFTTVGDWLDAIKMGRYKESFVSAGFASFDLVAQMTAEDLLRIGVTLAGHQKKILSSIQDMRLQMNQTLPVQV
Experimental: as §1

[7] = target: T7, TBK1 (Homo sapiens, UniProt Q9UHD2)
T7 construct: purchased ProQinase (Freiburg, Germany)
T7 sequence (Q9UHD2 1-729): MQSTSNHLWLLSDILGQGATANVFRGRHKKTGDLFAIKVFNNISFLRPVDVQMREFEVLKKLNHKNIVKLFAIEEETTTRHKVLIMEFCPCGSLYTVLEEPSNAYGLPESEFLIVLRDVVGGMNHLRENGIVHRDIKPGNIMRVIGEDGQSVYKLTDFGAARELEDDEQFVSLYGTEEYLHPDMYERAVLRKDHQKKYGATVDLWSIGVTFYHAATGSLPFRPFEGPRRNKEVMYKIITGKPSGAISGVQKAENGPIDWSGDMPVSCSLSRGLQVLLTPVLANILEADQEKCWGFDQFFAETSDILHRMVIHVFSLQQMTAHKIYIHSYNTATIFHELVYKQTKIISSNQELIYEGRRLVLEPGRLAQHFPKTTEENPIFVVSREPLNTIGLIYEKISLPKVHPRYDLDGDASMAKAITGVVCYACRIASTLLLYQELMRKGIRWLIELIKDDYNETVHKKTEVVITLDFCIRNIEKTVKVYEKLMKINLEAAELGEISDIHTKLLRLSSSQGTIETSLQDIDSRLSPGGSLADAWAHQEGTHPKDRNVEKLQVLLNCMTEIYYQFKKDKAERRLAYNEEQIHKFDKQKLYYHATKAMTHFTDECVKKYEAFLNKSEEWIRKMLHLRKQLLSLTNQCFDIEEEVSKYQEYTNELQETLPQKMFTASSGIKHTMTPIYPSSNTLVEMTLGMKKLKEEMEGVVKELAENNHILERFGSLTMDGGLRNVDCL
Experimental: as §1

T5 sequence (Q16539 whole entry): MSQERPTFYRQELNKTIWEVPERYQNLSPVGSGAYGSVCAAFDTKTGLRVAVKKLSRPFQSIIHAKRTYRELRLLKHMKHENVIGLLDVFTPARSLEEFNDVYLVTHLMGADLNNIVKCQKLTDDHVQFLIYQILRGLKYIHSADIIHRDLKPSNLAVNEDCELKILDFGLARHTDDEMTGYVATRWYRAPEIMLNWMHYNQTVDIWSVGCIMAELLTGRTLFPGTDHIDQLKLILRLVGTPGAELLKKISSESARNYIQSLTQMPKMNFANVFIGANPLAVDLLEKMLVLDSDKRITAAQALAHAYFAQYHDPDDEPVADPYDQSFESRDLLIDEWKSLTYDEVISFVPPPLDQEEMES
T3 sequence (P54764 20-986): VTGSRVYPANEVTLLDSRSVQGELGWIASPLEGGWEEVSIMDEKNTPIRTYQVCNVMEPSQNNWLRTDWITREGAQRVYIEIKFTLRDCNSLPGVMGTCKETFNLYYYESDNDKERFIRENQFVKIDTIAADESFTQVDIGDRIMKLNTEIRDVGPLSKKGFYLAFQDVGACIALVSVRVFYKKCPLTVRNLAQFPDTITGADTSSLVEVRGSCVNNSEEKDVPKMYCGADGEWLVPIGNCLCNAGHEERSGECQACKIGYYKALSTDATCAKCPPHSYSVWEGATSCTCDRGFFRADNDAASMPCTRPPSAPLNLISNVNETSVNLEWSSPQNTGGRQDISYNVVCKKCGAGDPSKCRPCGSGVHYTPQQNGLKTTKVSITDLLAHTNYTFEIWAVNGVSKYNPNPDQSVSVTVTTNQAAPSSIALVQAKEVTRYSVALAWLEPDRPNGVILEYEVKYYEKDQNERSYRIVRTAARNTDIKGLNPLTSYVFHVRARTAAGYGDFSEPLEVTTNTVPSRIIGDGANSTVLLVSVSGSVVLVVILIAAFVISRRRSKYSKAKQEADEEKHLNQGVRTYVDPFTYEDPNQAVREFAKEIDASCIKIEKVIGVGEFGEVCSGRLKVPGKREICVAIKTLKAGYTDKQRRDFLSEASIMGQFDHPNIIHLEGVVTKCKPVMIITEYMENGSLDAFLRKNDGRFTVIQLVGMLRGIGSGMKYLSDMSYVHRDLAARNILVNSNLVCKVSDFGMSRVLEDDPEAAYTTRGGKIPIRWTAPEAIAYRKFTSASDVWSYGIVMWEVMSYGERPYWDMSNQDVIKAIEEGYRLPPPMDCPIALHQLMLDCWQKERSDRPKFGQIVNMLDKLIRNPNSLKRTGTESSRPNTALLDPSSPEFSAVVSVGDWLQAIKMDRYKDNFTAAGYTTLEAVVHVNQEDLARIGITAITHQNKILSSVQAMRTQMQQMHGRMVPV

SMILES	Residual activity ([1]; 1.0E-05 M)	Residual activity ([1]; 1.0E-06 M)	Residual activity ([2]; 1.0E-05 M)	Residual activity ([2]; 1.0E-06 M)	Residual activity ([3]; 1.0E-05 M)	Residual activity ([3]; 1.0E-06 M)	Residual activity ([4]; 1.0E-05 M)	Residual activity ([4]; 1.0E-06 M)	Residual activity ([5]; 1.0E-05 M)	Residual activity ([5]; 1.0E-06 M)	Residual activity ([6]; 1.0E-05 M)	Residual activity ([6]; 1.0E-06 M)	Residual activity ([7]; 1.0E-05 M)	Residual activity ([7]; 1.0E-06 M)	inhibition at 1 µM ([5]; 1 µM, read-out: inhibition of p38α) [%]	inhibition at 10 µM ([5]; 10 µM, read-out: inhibition of p38α) [%]
O=C(Cc1ccccc1)Nc1ccc(F)c(Nc2ccc3c(c2)CCCCC3=O)c1 [Compound 100]	92 % of control	99 % of control	119 % of control	102 % of control	88 % of control	97 % of control	106 % of control	87 % of control	73 % of control	78 % of control	69 % of control	100 % of control	101 % of control	103 % of control		
O=C(Nc1ccc(F)c(Nc2ccc3c(c2)CCCCC3=O)c1)c1cccc(F)c1 [Compound 109]	99 % of control	94 % of control	87 % of control	106 % of control	90 % of control	86 % of control	94 % of control	83 % of control	4 % of control	17 % of control	85 % of control	100 % of control	93 % of control	93 % of control	≥ 50	≥ 50
